From patent US4372948A, “Derivative of saccharide and physiologically active agent containing the same” (Kureha Kagaku Kogyo Kabushiki Kaisha, priority 1980, dated 1983) come the findings set out here.

Some results are limits rather than exact numbers.

In one series the test system is total cholesterol. Nature of the series: Anti-hyperlipemia activity, total cholesterol in blood. In kind it is in vivo, rabbit (Japanese white male). The following applies: oral, 300 mg/kg once; for Reduction of cholesterol level after 3 hrs.: negative = raising. Here is the method:
(§1) Japanese white male rabbits were fed for 3 months with a solid diet containing 1% of cholesterol taken ad lib, and after confirming the raised lipid content of the serum of the rabbits, they were utilized as model animals suffering from experimental arteriosclerosis. Each of the present compounds was administered orally as a solution or dispersion in distilled water to the experimental animals of each group at a dose rate of 300 mg/kg once, and blood samples were taken at a predetermined time interval from the auricular vein of each animal. The content of cholesterol in the blood specimen was traced as the time passed by, with an enzymatic method, and the content of beta-lipoprotein in the same blood specimen was traced with a colorimetry. Each value in Table 7 is the difference between the level just before administration and the level after 3 or 6 hours of the administration.

For a further series, the system named is level of blood sugar. The experiment in a line: Anti-hyperglycemia activity (reduction of blood sugar level). The series is classed as in vivo, rat (Wistar, streptozotocin). Conditions: oral, 300 mg/kg. As to the method:
A group of Wistar rats to which at first streptozotocin was interperitoneally administered at a rate of 60 mg/kg and of which the positivity of glycosuria was confirmed after a week of the administration and to which regular insulin was further administered and of which the reduction of levels of glucose in urine and blood was once confirmed, however, of which hyperglycemia and hyperglycosuria were again confirmed after a few days was chosen and used as model animals of glycosuria in the following test. After orally administering each of the present compounds to the model animals at a dose of 300 mg/kg body weight, as a solution or dispersion in distilled water, the blood was collected two times, respectively after 3 and 6 hours of the administration.

Another series deals with exudation. Nature of the series: Anti-exudation activity (air pouch, croton oil). In kind it is in vivo, rat. Conditions: 5 days; for inhibition in vivo at 1000 mg/kg/day: Rattus norvegicus, po, 144 h, read-out: I.R. against exudation. Here is the method: Following the method of Baris et al. (1965), air was injected subcutaneously into the back of groups of rats, each group consisting of 6 animals to make an air pouch, and 0.5 ml of sesame oil containing 1% by weight of croton oil was injected into the air pouch. Each of the present compounds was orally administered forcibly to each of the groups of rats as a solution or dispersion in distilled water at a dose rate of 1000 mg/kg/day for continued five days. The amount of liquid exudated into the air pouch was measured on 6th day of the operation. The rate of inhibiting the exudation of the liquid was obtained by the same manner as in (5-2) and the results are shown also in Table 8.

A further series in a line: in vivo. The following applies: mouse, in vivo, po, mice, 7 days observation, read-out: LD50, acute oral toxicity.
In series [1] the test system is pyrexia (Saccharomyces cerevisiae). The experiment in a line: Anti-pyrexia activity (yeast-induced). In kind it is in vivo. The following applies: Rattus norvegicus, oral, read-out: Rate of inhibiting pyrexia (I.R.). Here is the method:
Following the method of Winter et al. (1961), an aqueous dispersion of 20% by weight of Saccharomyces cerevisiae was subcutaneously injected into groups of rats, each group consisting of 6 animals, and after 10-hour fasting, 1000 mg/kg of each of the present compounds was orally administered to the rat as a solution of dispersion in distilled water, and then the rectal temperature of the rat was measured at a predetermined interval of time to find the lowest temperature.
The anti-pyrexia activity of each compound was obtained from the following formula: […]
Anti-pyrexia activity represented by the rate of inhibition (I.R.)
C2 represents the average rectal temperature of negative control (non-treatment), not injected with the yeast and not administered with the present compound,
C1 represents the average temperature of positive control, injected with the yeast and not administered with the compound and T represents the temperature of tested animals, injected with the yeast and administered with the present compound.

In the next series the test system is cotton pellet granuloma. Nature of the series: Anti-granuloma activity (cotton pellet). The series is classed as in vivo, rat. The following applies: Rattus norvegicus, po, 192 h, 7 days, read-out: I.R. against cotton pellet edema. As to the method: Following the method of Winter et al. (1963), each two cotton wool pellets, each weighing 30±1 mg, were implanted into the back of each rats of groups of rats, each group consisting of 6 animals, at the positions of mutually symmetrical concerning the median line of the rat. To these groups of the thus operated rats, the present compounds were respectively administered orally and forcibly as a solution or dispersion in distilled water for 7 continuous days, once a day at a dose of 1000 mg/kg/day. On 8th day of the implantation, the granuloma was extirpated and the dry weight of the granuloma was measured, the rate of inhibiting the proliferation of granuloma being obtained as in (5-1) being shown in Table 8.

The subject of series [2] is pseudo-escaping reaction to tail pressure. The experiment in a line: Analgetic activity against mechanical stimulation of pressure. In kind it is in vivo, mouse (ICR female). The following applies: oral, 1000 mg/kg.
The next series relates to carrageenin edema. The experiment in a line: Anti-Carrageenin edema activity. In kind it is in vivo, rat. Conditions: Rattus norvegicus, po, 1000 mg/kg once, read-out: I.R. against carrageenin edema. As to the method: After orally administering each of the present compounds forcibly to each group of rats, composed of 10 animals, as a solution or dispersion in distilled water at a dose of 1000 mg/kg once, 0.1 ml of an aqueous dispersion of 1% carrageenin in aqueous physiological saline solution was injected into the foot pad of the right hind leg of the administered animal following Van Arman et al. (1963). Thereafter, the thickness of the foot pad was measured at a time interval to find the rate of inhibiting of the swelling of the foot pad according to the following formula:
(§2) Rate of inhibition (I.R.) (%)=(1-T/C)×100
T means the average volume of the foot pad of the animals administered with one of the present compounds and carrageenin, and
C means that of the animal not administered with the present compound, however, administered with carrageenin.
For orientation: Carrageenan injected into the paw causes an acute inflammation.

Another series relates to blood pressure. Nature of the series: Anti-hypertension activity (reduction of blood pressure). In kind it is in vivo, rat (spontaneous hypertension). Conditions: oral, 300 mg/kg. Here is the method:
Rats of spontaneous hypertension were orally administered with each of the present compounds as a solution or dispersion in distilled water at a dose rate of 300 mg/kg body weight. After 3 and 6 hours of the administration, the blood pressure of each rat was determined, and the difference between the above-determined value and the value just before the administeration was used as the index of the activity of reducing the blood pressure of the compound.

Another series concerns acetic acid writhing. Nature of the series: Analgetic activity against chemical stimulation of acetic acid (writhing). The series is classed as in vivo, mouse (ICR female). Conditions: Mus musculus, po, 30 min before 0.6% acetic acid, read-out: I.R. of writhing.
Source text: as §2
T represents the average number of writhing of the group of mice administered with the present compound and injected with acetic acid, and C represents the average number of writhing of the group of mice only injected with acetic acid (control).
In general terms: In writhing tests, fewer writhes than in controls are read as antinociception.

A further series has as its system Sarcoma-180. The experiment in a line: Anti-tumour activity against Sarcoma-180. Conditions: Mus musculus, Sarcoma-180, po, 600 h, 10 times every other day, tumour weight on 25th day, read-out: Antitumour activity, inhibiting rate (I.R.). The series is classed as in vivo, mouse (ICR-JCL). Here is the method: Sarcoma-180 was transplanted into the axillary part of ICR-JCL mice at a rate of 1×10^6 cells/animal, and after 24 hours of transplantation, each of the present compounds as a solution or dispersion in sterilized physiological saline solution was orally administered to each of the transplanted mice 10 times every other day at a dose of 500 mg/kg/time. On 25th day of the transplantation, tumour node(s) were extirpated from all the mice to determine the weight of the tumour nodes.
Antitumour activity (activity of inhibiting the proliferation of the transplanted sarcoma) of each of the present compounds was derived by the following formula and shown in Table 6:
Antitumour activity (Inhibiting rate, I.R.)=(1-T/C)×100(%).
T represents the total weight of tumour nodes of the group of mice transplanted and administered with the present compound, and
C represents the total weight of tumour nodes of the group of mice transplanted, however, not administered with any agents.

For another series, the system named is beta-lipoprotein. Nature of the series: Anti-hyperlipemia activity, beta-lipoprotein in blood. The following applies: oral, 300 mg/kg once. In kind it is in vivo, rabbit (Japanese white male). Here is the method: as §1

Broadly, the LD50 is the dose expected to kill half of the subjects tested. Turning to `C[C@@H]1OC(Nc2cccc(C(=O)OCC3CCCCC3)c2)[C@@H](O)[C@H](O)[C@@H]1O` (stereo partly drawn) [Compound 22, hexahydrobenzyl m-aminobenzoate-N-L-fucoside], in the series with total cholesterol, the “Reduction of cholesterol level after 3 hrs.” value was 6 mg/dL and the “Reduction of cholesterol level after 6 hrs.” value was 38 mg/dL. Besides, in the series on level of blood sugar, the “Reduced level of blood sugar after 3 hrs.” value worked out at 133 mg/dL and the “Reduced level of blood sugar after 6 hrs.” value was 150 mg/dL. Moreover, the inhibition in vivo at 1000 mg/kg/day in the series on exudation came out at 7.7%. In addition, in “in vivo”, the LD50 at 168 h stood at 10100 mg/kg. Further, in series [1], the inhibition in vivo at 1000 mg/kg was found to be 29%. Besides, the inhibition in vivo at 1000 mg/kg/day in the series on cotton pellet granuloma turned out to be 15.7%. Moreover, in series [2], the Pseudo-escapting reaction pressure came out at 75 mmHg and the Pseudo-escapting reaction time turned out to be 37 s. Moreover, the inhibition in vivo at 1000 mg/kg with carrageenin edema came out at 24.6%. Moreover, in the series on blood pressure, the “Reduced level of blood pressure after 3 hrs.” value was 15 mm Hg and the “Reduced level of blood pressure after 6 hrs.” value amounted to 21 mm Hg. Also, the inhibition in vivo at 1000 mg/kg with acetic acid writhing amounted to 19%. Also, in the series with Sarcoma-180, the inhibition in vivo at 500 mg/kg was 35%. In addition, in the series with beta-lipoprotein, the “Reduction of beta-lipoprotein level after 3 hrs.” value stood at 125 mg/dL and the “Reduction of beta-lipoprotein level after 6 hrs.” value is 133 mg/dL.

For the compound `NC(=O)c1ccc(NC2OC[C@@H](O)[C@H](O)[C@H]2O)cc1` (stereo partly drawn) [Compound 3, p-aminobenzoic acid amide-N-D-xyloside], in the series with total cholesterol, the “Reduction of cholesterol level after 3 hrs.” value is 3 mg/dL and the “Reduction of cholesterol level after 6 hrs.” value stood at 45 mg/dL. Also, in the series on level of blood sugar, the “Reduced level of blood sugar after 3 hrs.” value was 101 mg/dL and the “Reduced level of blood sugar after 6 hrs.” value is 115 mg/dL. For the same compound, the inhibition in vivo at 1000 mg/kg/day in the series with exudation worked out at 19.1%. Besides, the LD50 at 168 h in “in vivo” is > 15000 mg/kg. Also, the inhibition in vivo at 1000 mg/kg in series [1] was 20%. In addition, the inhibition in vivo at 1000 mg/kg/day in the series with cotton pellet granuloma is 7%. In series [2], this compound came in with a Pseudo-escapting reaction pressure of 93 mmHg and a Pseudo-escapting reaction time of 44 s. In addition, the inhibition in vivo at 1000 mg/kg in the series with carrageenin edema stood at 26.5%. Besides, in the series on blood pressure, the “Reduced level of blood pressure after 3 hrs.” value came to 20 mm Hg and the “Reduced level of blood pressure after 6 hrs.” value was found to be 24 mm Hg. Further, the inhibition in vivo at 1000 mg/kg in the series with acetic acid writhing was determined as 22%. Moreover, the inhibition in vivo at 500 mg/kg with Sarcoma-180 was determined as 47%. Besides, in the series with beta-lipoprotein, the “Reduction of beta-lipoprotein level after 3 hrs.” value came to 115 mg/dL and the “Reduction of beta-lipoprotein level after 6 hrs.” value stood at 119 mg/dL.

In the case of `C[C@@H]1OC(Nc2ccc(CC(=O)O)cc2)[C@H](O)[C@H](O)[C@H]1O` (stereo partly drawn) [Compound 27, p-aminophenylacetic acid-N-L-rhamnoside], in the series on total cholesterol (300 mg/kg), the “Reduction of cholesterol level after 3 hrs.” value is 1 mg/dL and the “Reduction of cholesterol level after 6 hrs.” value was found to be 30 mg/dL. For the same compound, in the series on level of blood sugar, the “Reduced level of blood sugar after 3 hrs.” value came out at 91 mg/dL and the “Reduced level of blood sugar after 6 hrs.” value was 90 mg/dL. Also, the I.R. against exudation with exudation (oral, 1000 mg/kg/day) is on record as 16.5%. In addition, the LD50 at 168 h in “in vivo” came out at 13800 mg/kg. In the series with cotton pellet granuloma, the inhibition in vivo at 1000 mg/kg/day was 23.1%. Also, in [2], the Pseudo-escapting reaction pressure came out at 91 mmHg and the Pseudo-escapting reaction time amounted to 40 s. Also, the inhibition in vivo at 1000 mg/kg in the series on carrageenin edema was 5.2%. In the series on blood pressure, the “Reduced level of blood pressure after 3 hrs.” value was 20 mm Hg and the “Reduced level of blood pressure after 6 hrs.” value was found to be 20 mm Hg. Besides, the inhibition in vivo at 1000 mg/kg with acetic acid writhing amounted to 35%. For the same compound, in the series on Sarcoma-180, the inhibition in vivo at 500 mg/kg was found to be 43%. In the series with beta-lipoprotein (300 mg/kg), the “Reduction of beta-lipoprotein level after 3 hrs.” value was determined as 125 mg/dL and the “Reduction of beta-lipoprotein level after 6 hrs.” value stood at 130 mg/dL.
